Laboratory results reported in the supplement of paper PMC8967900.

Tests used:
Experiment in all cases: selective drug sensitivity score (sDSS, relative to normal bone marrow) (sDSS (score)); higher = more potent and effective on the cell line relative to normal bone marrow cells
Settings in all cases: 72 h
[1] = system: COG-LL-332h
[2] = system: ALL-PO
[3] = system: LC4-1
[4] = system: MHH-CALL-3
[5] = system: P30-OHKUBO
[6] = system: HPB-ALL
[7] = system: NALM-6
[8] = system: KARPAS-45
[9] = system: SUP-B15
[10] = system: NALL-1
[11] = system: KOPN-8
[12] = system: MOLT-14
[13] = system: TMD5
[14] = system: MOLT-4
[15] = system: MOLT-16
[16] = system: KASUMI-10
[17] = system: HAL-01
[18] = system: COG-LL-394h
[19] = system: MHH-CALL-4
[20] = system: COG-LL-317
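Further: ALL cell lines in 384-well plates, five doses spanning 10,000-fold, each plate scaled between vehicle and 100 µmol/L benzalkonium chloride controls, sDSS an adapted area-under-curve metric.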

Row | SMILES | selective drug sensitivity score [1] | selective drug sensitivity score [2] | selective drug sensitivity score [3] | selective drug sensitivity score [4] | selective drug sensitivity score [5] | selective drug sensitivity score [6] | selective drug sensitivity score [7] | selective drug sensitivity score [8] | selective drug sensitivity score [9] | selective drug sensitivity score [10] | selective drug sensitivity score [11] | selective drug sensitivity score [12] | selective drug sensitivity score [13] | selective drug sensitivity score [14] | selective drug sensitivity score [15] | selective drug sensitivity score [16] | selective drug sensitivity score [17] | selective drug sensitivity score [18] | selective drug sensitivity score [19] | selective drug sensitivity score [20]
1 | CNC(=O)c1ccc(C)c(-n2c(C)cc(OCc3ccc(F)cc3F)c(Br)c2=O)c1 (top concentration 1000 nM) | 0 | 0 | 0 | 0 | 4.5 | 4.6 | 0.1 | 0 | 0 | 0.3 | 0.7 | 0 | 0 | 0 | 0 | 0 | 2.6 | 0 | 5 | 0
2 | CONC(=O)c1ccccc1Nc1cc(Nc2cc(C)nn2C(C)C)ncc1Cl (top concentration 1000 nM) | -0.94 | -0.14 | 3.36 | -0.94 | -0.94 | -0.94 | 0.56 | -0.94 | -0.94 | -0.94 | 3.86 | -0.94 | -0.94 | -0.94 | -0.94 | -0.94 | 2.96 | -0.94 | -0.94 | -0.94
3 | CCOc1ccn(-c2ccc(F)cc2)c(=O)c1C(=O)Nc1ccc(Oc2ccnc(N)c2Cl)c(F)c1 (top concentration 2500 nM) | 3.2 | 2.7 | 0 | 0 | 1.5 | 0 | 2 | 2.2 | 3.5 | 0 | 0 | 0 | 0 | 0.1 | 0 | 2.6 | 0.1 | 0.8 | 0 | 0
4 | CC[C@@H]1[C@H](F)C(=O)N[C@@H]1COc1nccc2cc(C(N)=O)c(OC)cc12 (top concentration 10000 nM) | -0.42 | 2.08 | 0.08 | 1.58 | 2.38 | -1.32 | 4.48 | 2.58 | 0.98 | -1.32 | 1.78 | 1.38 | -1.32 | 2.48 | 0.98 | 3.68 | -1.32 | 0.38 | -0.92 | 1.28
5 | C[C@H]1C[C@@H](n2c(Nc3ccc(OC(F)(F)F)cc3)nc3cc(CCC(=O)O)ccc32)CC(C)(C)C1 (top concentration 10000 nM) | 1.36 | 2.86 | 0.76 | -0.14 | -0.14 | 5.56 | 0.16 | 2.76 | 2.16 | -0.14 | 0.06 | 2.96 | -0.14 | 3.06 | 5.66 | -0.14 | 1.16 | -0.14 | -0.14 | 2.56
6 | O=C(NCc1ccncc1)C12CC3CC(C1)CC(c1ccc(Cl)cc1)(C3)C2 (top concentration 50000 nM) | 2.08 | 3.28 | 0.18 | 2.78 | 3.18 | 1.88 | -0.22 | 3.28 | 0.18 | 3.58 | 4.48 | 1.38 | 0.68 | 1.98 | 1.58 | 0.98 | 4.28 | 2.88 | 2.78 | -0.12
7 | O=C(O)c1ccc(CN2CCC(CN[C@@H]3C[C@H]3c3ccccc3)CC2)cc1 (top concentration 100000 nM) | 0.08 | 2.08 | -0.02 | -0.62 | -0.62 | -0.62 | -0.62 | -0.32 | -0.52 | -0.32 | -0.62 | -0.62 | -0.62 | -0.62 | 0.28 | -0.62 | -0.62 | -0.62 | 0.58 | 6.48
8 | COc1cc(N2CCN(C)CC2)ccc1Nc1nccc(-c2cn(C)c3cnccc23)n1 [AZ191] (top concentration 10000 nM) | -0.02 | 3.58 | -2.72 | -2.72 | -0.72 | -4.72 | -1.72 | 0.98 | -2.72 | 2.88 | 2.18 | -1.32 | -4.32 | -3.32 | -1.32 | 5.38 | 0.88 | -0.72 | 1.98 | 0.58
9 | Cc1cc(Nc2nc(N[C@@H](C)c3ncc(F)cn3)ncc2Cl)[nH]n1 [AZD1480] (top concentration 1000 nM) | -3.08 | 0.72 | -4.08 | -1.28 | -4.18 | -3.48 | -3.58 | 0.32 | 0.02 | -1.48 | -4.28 | -4.28 | -1.98 | -3.28 | -4.28 | -0.48 | -0.98 | -4.18 | -0.78 | -2.78
10 | COc1cc(CCc2cc(NC(=O)c3ccc(N4CC(C)NC(C)C4)cc3)n[nH]2)cc(OC)c1 (stereo not given) [AZD4547] (top concentration 1000 nM) | -0.04 | 0.46 | 0.66 | -0.14 | -0.14 | -0.14 | -0.14 | -0.14 | -0.14 | -0.14 | -0.14 | -0.14 | -0.14 | -0.14 | -0.14 | 1.36 | -0.14 | 0.16 | -0.14 | -0.14
11 | CN(C)C(=O)c1ccc(S(=O)(=O)c2ccc(NC(=O)[C@@](C)(O)C(F)(F)F)c(Cl)c2)cc1 [AZD7545] (top concentration 10000 nM) | 0.5 | 2.6 | 1.6 | 0.1 | 0.6 | 0.3 | 3.7 | 2.9 | 4.9 | -0.2 | 3.1 | 1 | -0.2 | 1.6 | 5.3 | -0.2 | -0.2 | 4.1 | -0.2 | 0.7
12 | COc1cc(C)c(/C=C/C(C)=C/C=C/C(C)=C/C(=O)O)c(C)c1C [Acitretin] (top concentration 10000 nM) | 0 | -0.3 | -0.9 | -0.2 | -1.6 | -0.1 | -1.5 | 0.2 | -1.6 | -1.6 | 1.8 | -1.4 | -1.6 | -1.2 | -0.4 | -1.6 | -1.6 | -1.6 | -1.6 | -0.5
13 | CCC1(c2ccc(N)cc2)CCC(=O)NC1=O (stereo not given) [Aminoglutethimide] (top concentration 10000 nM) | 0 | 0 | 0 | 0 | 0 | 0.4 | 0 | 0 | 0 | 0 | 0 | 0 | 0 | 0 | 0 | 0 | 0 | 0 | 0.5 | 0
14 | CNC(=O)c1ccc(N2C(=S)N(c3cnc(C#N)c(C(F)(F)F)c3)C(=O)C23CCC3)cc1F [Apalutamide] (top concentration 10000 nM) | 0 | 0 | 0 | 0 | 0 | 0 | 0 | 0 | 0 | 0 | 0 | 0 | 0 | 0 | 0 | 0 | 0 | 0 | 0 | 0
15 | N#CC1(c2ccc(NC(=O)c3cccnc3NCc3ccncc3)cc2)CCCC1 [Apatinib] (top concentration 10000 nM) | 0 | 2.4 | 1.2 | 0 | 0 | 1 | 0.4 | 0 | 0.1 | 0 | 0.1 | 0 | 0 | 0 | 0 | 0 | 0 | 0 | 0 | 0
16 | Cc1nc2cccc(N)c2c(=O)n1C1CCC(=O)NC1=O (stereo not given) [Avadomide (CC122)] (top concentration 10000 nM) | 0 | 0 | 3.5 | 0 | 5.9 | 0 | 0 | 0 | 0 | 0 | 1.3 | 0 | 3.5 | 0 | 0 | 2.3 | 1.6 | 0 | 3.9 | 0
17 | Nc1nc(Nc2ccc3c(c2)CC[C@@H](N2CCCC2)CC3)nn1-c1cc2c(nn1)-c1ccccc1CCC2 [BGB324] (top concentration 10000 nM) | 2.22 | 6.02 | 1.52 | -0.98 | 5.82 | -2.88 | 1.92 | 1.92 | 3.02 | -2.68 | 0.02 | 1.62 | -2.98 | 3.22 | 2.92 | 0.32 | -1.58 | 2.82 | -2.88 | -0.38
18 | CC1(C)C(C(=O)Nc2ccc(S(=O)(=O)c3ccc(NC(=O)C4C(C)(C)C4(C)C)cc3)cc2)C1(C)C [BRD7116] (top concentration 10000 nM) | -0.24 | -0.24 | 1.76 | -0.24 | 4.46 | 3.26 | 1.96 | -0.04 | -0.14 | -0.24 | -0.24 | 2.16 | 0.66 | 0.66 | 1.26 | 0.86 | 3.36 | 3.16 | -0.24 | -0.24
19 | CCS(=O)(=O)N1CC(CC#N)(n2cc(-c3ncnc4[nH]ccc34)cn2)C1 [Baricitinib] (top concentration 2500 nM) | 0.16 | -1.94 | -1.94 | -1.94 | -1.94 | -1.94 | -1.94 | -1.94 | -1.94 | -1.94 | -1.94 | -1.94 | -1.94 | -1.94 | -1.94 | -1.94 | -1.94 | -1.94 | -1.24 | -1.94
